Data: patent US20230355608A1, “TARGETING POLYCYTHEMIA VERA (PV)-INITIATING CELLS BY BLOCKING LEUKOTRIENE BINDING TO THEIR RECEPTORS” (UNIVERSITY OF MASSACHUSETTS, priority 2020, published 2023)
Entries after “also recorded” stand apart in the source; their conditions may differ.

Legend:
[1] = test system: JAK2V617F-induced PV in mice; conditions: Chen et al., Cancer Research 77(1):164-174; cited from earlier work
[2] = test system: human CD34+ cells from Polycythemia Vera (PV) patients; conditions: Chen et al., Cancer Research 77(1):164-174; cited from earlier work
HEL cells [3] = assay: Apoptosis assay by FACS (Annexin V and 7-AAD); format: cell-based, human; conditions: compared with Ba/F3 cells
Protocol: (§1) A mouse Ba/F3 cell line transduced with pMSCV-IRES-GFP was used as a control. Mouse JAK2V617F-GFP-expressing Ba/F3 cell line was kindly provided by Dr. Ross Levine (Human Oncology and Pathogenesis Program, Memorial Sloan-Kettering Cancer Center, New York, NY). Human JAK2V617F-expressing HEL cell line was purchased from ATCC. Cell lines were cultured in RPMI-1640 medium containing 10% FCS and 50 μmol/L 2-mercaptoethanol. Ba/F3 cell line was cultured in the medium mentioned above with 10 ng/ml IL3. C57BL/6J mice were obtained from The Jackson Laboratory.
(§2) Cell numbers were counted in duplicates by trypan blue (Sigma-Aldrich) exclusion at 24 h and 48 h, respectively. FACS analysis was applied for cell cycle test using Hoechst and Pyronin (Sigma-Aldrich) staining, and for apoptosis assay staining with Annexin V and 7-AAD (eBiosciences) according to the manufacturer's instructions. Results are expressed as the mean±SD.

HEL cells [4] = assay: Cell-cycle progression by FACS (Hoechst and Pyronin); format: cell-based, human
Protocol: as §1, §2

K562 cells = conditions: Yektaei-Karin et al. 2017; cited from earlier work
[5] = test system: JAK2V617F-induced PV mice
Protocol: The bone marrow cells from donor mice, pretreated with 5-fluorouracil (5-FU), were infected with retrovirus containing pMSCV-JAK2V617F-GFP under conditions for the induction of PV as described previously, followed by transplantation of the transduced cells into C57BL/6J recipient mice.
To test this hypothesis, bone marrow cells (BM) were collected for FCM analysis after 4 months treatment.
PV model was induced in mice as follows: Bone marrow cells from 5-FU-treated (200 mg/kg) donor mice were transduced twice with JAK2V617F retrovirus in the presence of IL-3, IL-6, and stem cell factor (SCF). The recipient mice received 1,100 cGy lethal gamma irradiation (given by 2 split 550-cGy doses), followed by 2.0×10^6 cells transplantation via tail vein injection.
Hematopoietic cells were collected from peripheral blood and bone marrow of the PV mice, and red blood cells (RBCs) were eliminated using RBC lysis buffer (pH 7.4). Then the cells were stained with fluorescence-labeled antibodies (Gr−1 for neutrophils, c-kit and Sca−1 for stem cells) and subjected to FACS analysis. These antibodies were purchased from eBioscience Biotechnology. Data were acquired on a FACS Calibur flow cytometric analyzer (Becton Dickinson).
Water was used as placebo.

[6] = test system: JAK2V617F-expressing Ba/F3 cells; assay: Cell growth, trypan blue exclusion cell count; format: cell-based, mouse; conditions: various doses (10-40 μM), 24 and 48 hours
Protocol: as §1, §2

Ba/F3 cells = assay: Cell growth, trypan blue exclusion cell count; format: cell-based, mouse; conditions: various doses (10-40 μM), 24 and 48 hours
Protocol: as §1, §2

KCL22 cells = conditions: Yektaei-Karin et al. 2017; cited from earlier work
parental Ba/F3 cells = assay: Cell-cycle progression by FACS (Hoechst and Pyronin); format: cell-based, mouse; conditions: parental Ba/F3 cells that do not express JAK2V617F
Protocol: as §1, §2

Ba/F3-JAK2V617F cells [7] = assay: as above; format: cell-based, mouse
Protocol: as §1, §2

[8] = test system: JAK2V617F-expressing human HEL cells; assay: Cell growth, trypan blue exclusion cell count; format: cell-based; conditions: various doses (10-40 μM), 24 and 48 hours
Protocol: as §1, §2

[9] = test system: primary CD34+ blood cells from two CML patients; conditions: Yektaei-Karin et al. 2017; cited from earlier work
Ba/F3-JAK2V617F cells [10] = assay: Apoptosis assay by FACS (Annexin V and 7-AAD); format: cell-based, mouse; conditions: compared with Ba/F3 cells
Protocol: as §1, §2

KU812 cells = conditions: Yektaei-Karin et al. 2017; cited from earlier work
[11] = PV mice, 150 mg/kg once a day by gavage, vs placebo
[12] = PV mice, 150 mg/kg once a day by gavage, vs placebo, from 3rd month post treatment
[13] = PV mice, 150 mg/kg once a day by gavage, vs placebo, 150 mg/kg
[14] = PV mice, after 4 months treatment, vs placebo

CC(c1cc2ccccc2s1)N(O)C(N)=O (centres unmarked) [Zileuton]
development of PV in mice [1]: attenuates the development of PV | proliferation of human CD34+ cells from PV patients [2]: reducing proliferation

CC(C)(O)c1ccccc1CC[C@@H](SCC1(CC(=O)[O-])CC1)c1cccc(/C=C/c2ccc3ccc(Cl)cc3n2)c1.[Na+] [Montelukast, (R-(E))-1-(((1-(3-(2-(7-Chloro-2-quinolinyl)ethenyl)phenyl)-3-(2-(1-hydroxy-1-methylethyl)phenyl)propyl)thio)methyl)-cyclopropaneacetic acid]
apoptosis (HEL cells [3]): more dramatic apoptosis | cell-cycle progression (HEL cells [4]): blockade of cell-cycle progression | cell growth (K562 cells): significantly reduced the growth | non GFP (GFP-) cells (FIG. 5) ([5]; PV mice vs placebo, at 10 weeks): showed a loss | GFP+ cells (FIG. 5) ([5]; PV mice vs placebo, by 6 and 10 weeks post treatment): loss of the GFP+ cells | level of PLT [5, 11]: did not significantly affect | level of RBC [5, 11]: did not significantly affect | GFP+Gr-1+ PV cell number in peripheral blood [5, 12]: increased more slowly | GFP+Gr-1+ PV cell percentage in peripheral blood [5, 12]: increased more slowly | HCT [5, 13]: had an inhibitor compound effect | HGB [5, 13]: had an inhibitor compound effect | fibrosis in bone marrow [5, 13]: efficiently relieved the fibrosis; also recorded: efficiently relieved fibrosis morphology | GFP-Gr-1+ cell number in peripheral blood ([5]; PV mice, 150 mg/kg once a day by gavage, vs placebo, normal cells, 150 mg/kg): didn't show significant difference; also recorded: did not show a significant difference | GFP+ PV cell number in BM [5, 14]: dramatic decrease | GFP+ PV cell percentage in BM [5, 14]: dramatic decrease | cell growth [6]: dose-dependent growth inhibition | cell growth (Ba/F3 cells): dose-dependent growth inhibition | cell growth (KCL22 cells): significantly reduced the growth | cell-cycle progression (parental Ba/F3 cells): no significant cell-cycle block effect | cell-cycle progression (Ba/F3-JAK2V617F cells [7]): blockade of cell-cycle progression | cell growth [8]: dose-dependent growth inhibition | cell growth [9]: significantly reduced the growth | apoptosis (Ba/F3-JAK2V617F cells [10]): more dramatic apoptosis | cell growth (KU812 cells): significantly reduced the growth
